# Laboratory results published in PubChem BioAssay AID1645864 (Buhrlage Lab, Dana-Farber Cancer Institute and Novartis …, 2021).
# Active and inactive are the calls of the source.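 The calls were made as follows: active = maximal inhibition of USP17 at or above 30% in the confirmation dose-response, a value not among the printed readouts; inactive = the rest.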
# Molecular target: Ubiquitin carboxyl-terminal hydrolase 17-like protein 5 (Homo sapiens) (UniProt A8MUK1)
# Test: ubiquitin-specific protease 17 inhibitors, concentration series, biochemical, verification of primary actives (AID 1645864)
# Conditions: purified USP17, ubiquitin-rhodamine cleavage fluorescence, 3 h
# Sequence of Ubiquitin carboxyl-terminal hydrolase 17-like protein 5 (Homo sapiens) (A8MUK1 whole entry, looked up): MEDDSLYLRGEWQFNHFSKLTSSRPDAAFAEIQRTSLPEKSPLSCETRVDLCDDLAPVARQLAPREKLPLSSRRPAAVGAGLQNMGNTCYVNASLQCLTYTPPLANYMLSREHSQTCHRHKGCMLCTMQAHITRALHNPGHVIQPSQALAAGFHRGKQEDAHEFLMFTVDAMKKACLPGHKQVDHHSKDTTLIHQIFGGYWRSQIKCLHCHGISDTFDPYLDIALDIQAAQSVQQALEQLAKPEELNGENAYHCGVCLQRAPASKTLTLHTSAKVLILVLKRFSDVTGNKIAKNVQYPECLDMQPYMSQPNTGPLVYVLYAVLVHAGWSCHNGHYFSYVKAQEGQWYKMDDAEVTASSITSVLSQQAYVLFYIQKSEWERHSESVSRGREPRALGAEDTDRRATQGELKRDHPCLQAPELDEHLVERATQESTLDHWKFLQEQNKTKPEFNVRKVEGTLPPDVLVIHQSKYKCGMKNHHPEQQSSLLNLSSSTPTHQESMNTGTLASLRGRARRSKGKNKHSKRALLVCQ
row,IC50,Structure (SMILES)
1,> 50 µM (inactive),O=C1/C(=C/c2cn(-c3ccccc3)nc2-c2ccc3c(c2)OCCO3)Cc2ccccc21
2,28.9 µM,O=c1c2ccccc2ncn1C1CCN(S(=O)(=O)c2ccccc2F)CC1
3,> 50 µM (inactive),CCOC(=O)c1sc2nc(CC(=O)OC)nc(NCc3ccco3)c2c1C
4,27.7 µM,O=C(NCc1cccnc1)c1cnn2c(C(F)(F)F)cc(-c3ccc(F)cc3)nc12
5,25 µM,CCc1ccccc1NC(=O)COc1ccccc1-c1nnc(-c2ccccc2)o1
6,26.1 µM,COc1cc(OC)cc(-n2c(=O)c3sccc3n(CC(=O)c3ccc(F)cc3)c2=O)c1
7,33.5 µM,COCCNC(=O)Cn1c(=O)n(Cc2ccccc2)c(=O)c2c3c(sc21)CCC3
8,> 50 µM (inactive),Cc1cc(C(=O)Nc2ccc3c(c2)OCCO3)no1
9,> 50 µM (inactive),O=c1c2c(ccn1Cc1cc(F)ccc1F)ccn2Cc1cccnc1
10,> 50 µM (inactive),N#Cc1ccccc1COC(=O)c1ccc2ccccc2n1
11,> 50 µM (inactive),CCc1nc(-c2cccc(NC(=O)c3ccc(C#N)cc3F)c2)no1
12,0.135 µM,Cc1nc(C(=O)Nc2cccc(Cl)c2Cl)nn1-c1cc(Cl)cc(Cl)c1
13,19.6 µM,O=C1CC(c2cc3c(cc2Br)OCO3)c2cc3c(cc2N1)OCCO3 (stereo unspecified)
14,43 µM,CC(=O)c1cccc(NC(=O)c2ccc(N3CCCCC3)nn2)c1

# The remaining lines, values behind:
row,Structure (SMILES),IC50
1,Cc1cc(C)n2nc(CNc3cccc(Cl)c3)nc2n1,> 50 µM (inactive)
2,CC1(C)Cc2c(c(-c3ccco3)nc3sc4c(SCCCc5ccccc5)ncnc4c23)CO1,34.4 µM
3,COc1ccc(COc2ccc3c(C)c(CC(=O)N4CC[C@@]5(O)CCCC[C@H]5C4)c(=O)oc3c2)cc1,2.55 µM
4,Cc1cc(NC(=O)Cn2c(=O)n(CCCCC(=O)NCc3ccco3)c(=O)c3ccccc32)ccc1Br,2.84 µM
5,CCCc1nc2sc3c(NCCN4CCOCC4)ncnc3c2c2c1CCC2,> 50 µM (inactive)
6,Cn1c(=O)[nH]c(=O)c2c1nc1n(CCc3ccccc3)c(-c3ccccc3)cn21,33.1 µM
7,CS(=O)(=O)N1CCCN(c2nc3cc(Cl)ccc3n3cccc23)CC1,> 50 µM (inactive)
8,COc1ccc(OCC(=O)Nc2ccc(C)c(OCc3cc(=O)n4ccccc4n3)c2)cc1,4.29 µM
9,c1ccc(-n2nnc(-c3noc(-c4ccccn4)n3)c2-c2ccncc2)cc1,46.6 µM
10,CC1CCCN(CCCNC(=O)c2ccc(N3CCc4ccccc43)s2)C1 (stereo unspecified),> 50 µM (inactive)
11,CCCN1C=NS(=O)(=O)c2cc(C(=O)Nc3ccc(OC)c(Cl)c3)ccc21,40.9 µM
12,Cc1cc2nc(Oc3cccc(Cl)c3)c3ccccc3n2n1,1.91 µM
13,COc1cc2c(c(OCC(=O)Nc3ccc4c(c3)OCCO4)c1)C(=O)O[C@@H](C)CCCC(=O)CCCCC2,23.1 µM
14,Cn1c2ccccc2c(=O)c2c(=O)n(Cc3ccccc3)c(-c3ccco3)nc21,1.55 µM
15,CC(C)NC(=O)Cn1ccn2nc(-c3ccc(Cl)cc3)cc2c1=O,3.85 µM
16,Cc1ccc(NC(=O)c2ccc3nn(CC(=O)Nc4ccc(F)cc4F)c(=O)n3c2)cc1,2.79 µM
17,O=C(Nc1ccccc1-c1nc2ccccc2[nH]1)c1sc2ccccc2c1Cl,1.8 µM
18,COC(=O)c1ccc(Cn2cnc3ccc(F)cc3c2=O)o1,> 50 µM (inactive)
19,O=C1Nc2ccccc2C(=O)C1C(c1ccc(Cl)cc1)C1C(=O)Nc2ccccc2C1=O (stereo unspecified),35.6 µM
20,Cc1cc(=O)n(CC(=O)NCc2ccccc2F)c2c1c(C)nn2-c1ccccc1,24.2 µM
21,COc1ccc(C(=O)Nc2ccc3c(c2)Sc2ncccc2C(=O)N3C)cn1,> 50 µM (inactive)
22,CC(OC(=O)c1c2c(nc3ccccc13)CCCCC2)C(=O)Nc1ccc2ccccc2c1 (stereo unspecified),3.81 µM
23,Nc1nonc1C(=O)NCCNCc1cccc(OCc2ccc(Cl)cc2)c1,> 50 µM (inactive)
24,Fc1ccc(Nc2nc(Nc3cccc(F)c3)nc3nccnc23)cc1,> 50 µM (inactive)
25,CC(Nc1ncnc2c1sc1nc(N3CCOCC3)c3c(c12)CCC3)c1ccccc1 (stereo unspecified),5.33 µM
26,COc1cccc(-n2nnc(C(=O)Nc3ccc(C)c(C)c3)c2C)c1,> 50 µM (inactive)
27,COc1ccccc1S(=O)(=O)N1CC[C@@H]2CN(C)[C@@H]2C1,32.2 µM
